Results: patent US20150182583A1, “METHODS FOR TREATMENT AND PREVENTION OF TAUOPATHIES BY INHIBITING ENDOTHELIN RECEPTORS” (Board of Regents, The University of Texas System, priority 2012, published 2015)
Entries after “also recorded” stand apart in the source; their conditions may differ. Non-standard residues stand in square brackets, D forms with d. Residues, ends and D or L forms follow the SMILES beside them. dGly(5-dibenzosuberyl) = N[C@@H](C(=O)O)C1c2ccccc2CCc2ccccc21

How the values were obtained:
[1] = Body weight of mice treated with paclitaxel with or without PD145065; assay type: in vivo, mouse
Method: Studies to evaluated prevention and/or treatment of chemo-brain by PD145065 were performed. Female athymic nude mice (NCI-nu) were used in these studies. Mice were used in these experiments in accordance with institutional guidelines when they were 14-16 weeks old. Mice were randomized as follows;
Mice showing weight loss, dehydration (poor skin tugor) or poor movement (poor oral intake, decreased ambulation, etc.) were defined as symptomatic mice.
Prevention and/or treatment of Chemo-brain by PD145065 was evaluated via the following protocol. Treatment continued for 12 weeks and treatment and prevention groups were defined as follows: […]
(1) Treatment group—mice receiving TMZ or taxol (group 3 or 4) and showing symptoms defined above for two consecutive weeks began to receive PD145065;
(3) Prevention group—mice were receiving (PD+TMZ) or (PD+taxol) for 12 weeks (group 5 or 6).

[2] = tested on: TAU; experiment: Mouse model of chemo-brain (paclitaxel or TMZ), TAU immunohistochemistry; assay type: in vivo; conditions: for TAU production/expression in brain caused by the chemotherapeutic: mice bearing brain cancer (LN229 GBM) or normal mice, paclitaxel 8 mg/kg i.p. twice per week, TMZ 7.5 mg/kg p.o. daily
Method: The following methods were used to test for the in vivo effect of a dual endothelin receptor on a mouse model of chemo-brain. PD145065: SIGMA (SCP0143, 5 mg) was reconstituted in PBS containing 0.1% BSA. Temozolomide (TMZ): SIGMA (T2577-100 MG), was reconstituted in DMSO (10 mg/mL) with sonication and diluted in HBSS before treatment TAXOL (paclitaxel): Hospira (NDC 61703-342-09, 6 mg/mL) was diluted in saline before treatment. Mice were treated for 6 weeks with either TMZ (7.5 mg/kg, p.o., daily) or paclitaxel (8 mg/kg, i.p., twice per week) with or without PD145065 (10 mg/kg, i.p., daily). Treatment groups were as follows:
Mice were euthanized and the brains were collected and frozen (OCT) or placed in formalin and embedded in paraffin and then processed for IHC. Female nude mice were treated with Taxol (8 mg/kg) i.p. twice per week for six weeks. […] Female nude mice were treated orally with 7.5 mg/kg TMZ every day for six weeks.

[3] = tested on: ETA and ETB receptors; experiment: Immunohistochemistry of endothelin receptor phosphorylation (with the protection assay); assay type: cell-based; conditions: FIG. 15
Source text: Next the inventor used the compound PD 145065, which is a dual endothelin receptor inhibitor (antagonist), in further experiments. […] PD145065 may be administered orally to mice. Based on the in vitro data, it is anticipated that PD145065 may be used to decrease TAU in the brain in vivo.

[4] = tested on: GFAP; experiment: Mouse model of brain trauma, GFAP staining; assay type: in vivo; conditions: 10 mg/kg/day i.p. for 5 days prior to wounding, continued 3 days after
Method: (§1) A mouse model of brain trauma was used to evaluate the effect of a dual endothelin receptor antagonist (PD 145065) on TAU expression after a brain trauma. A parenchyma mouse model of brain trauma was used such that mice received a stereotaxically administered wound to the brain Immunochemistry was performed on brain samples to evaluate GFAP and TAU expression.
(§2) The mice were euthanatized 1, 2, or 4 days after creating the wound in the brain parenchyma. The brains were removed, fixed in formalin and stained for GFAP or (GFAP and TAU) using immunofluorescent staining.
(§3) Mice were pretreated with PD145065 10 mg/kg/day i.p. injection for 5 days prior to brain wounding. Control mice received saline injections. Treatment continued for 3 days after wounding. The brains were harvested 3 days after wounding and immunofluorescent staining immunohistochemistry experiments were performed.

[5] = tested on: TAU; experiment: Mouse model of brain trauma (parenchymal wound), TAU immunofluorescent staining; assay type: in vivo; conditions: 10 mg/kg/day i.p. for 5 days prior to wounding, continued 3 days after; brains harvested 3 days after wounding
Source text: Brain parenchymal wound was created by inserting a needle (32 G-21 G) by stereotactic injection unit. In brief, a mouse was anesthetized with Nembutal ([…]) and fixed in the stereotactic injection unit. Skin incision was made in the forehead and a hole was made in the calvaria with a 21 G needle. Injection needle was inserted into the brain parenchyma (4-mm depth) and withdrawn. Hole was blocked with bone wax and skin incision was closed with skin staples.
as §1, §2, §3

[6] = tested on: endothelin receptors A and B; experiment: Mouse model of brain trauma, endothelin receptor phosphorylation; assay type: in vivo; conditions: 10 mg/kg/day i.p. for 5 days prior to wounding, continued 3 days after
[7] = tested on: MDA231; experiment: Tumor cell-astrocyte protection assay (MDA231 protection assay); assay type: cell-based, human; conditions: FIG. 15
[8] = tested on: ET-1 stimulated astrocytes; experiment: Real-time PCR of APOE/TAU mRNA in ET-1 stimulated astrocytes; assay type: cell-based, murine; conditions: ET-1 (100 nM) 24 hr; PD145065 (1 μM) added 2 hrs prior to ET-1; FIG. 12
Method: FIG. 12: Expression level of APOE and TAU expression level in control astrocytes and astrocytes treated with BQ123 plus […] or PD145065. Treatment groups were as follows: Control, ET-1 (100 nM), ET-1+BQ123/BQ788 (1 μM), ET-1+PD145065 (1 μM). Cells were treated with ET-1 for 24 hr. BQ123, BQ788 or PD145065 was added 2 hrs prior to ET-1 stimulation.
(§4) To determine whether ETs upregulation in astrocytes culture with tumor cells, we performed in vitro coculture experiments. Astrocytes and NIH 3T3 fibroblasts were transfected with green fluorescent protein (GFP) genes. […] RT-PCR was performed using TaqMan® Universal PCR MasterMix and quantified with an ABI 7500 real time PCR system (Applied Biosystems, Foster City, Calif.). […] Relative mRNA expression was calculated according to the AACt method, and expressed as mean±S.D. of mRNA relative to that of control.
as §4, with “Astrocytes” for “To determine whether ETs upregulation in astrocytes culture with tumor cells, we performed in vitro coculture experiments. Astrocytes”, “method” for “method,”

[9] = tested on: TAU; experiment: Chronic hypoxia (hypoxia chamber) in mice, TAU immunohistochemistry; assay type: in vivo, mouse; conditions: hypoxia chamber 1-3 days; daily i.p. injections, or pretreatment 7 days before 48 hours of hypoxia
Method: (§5) Mice were placed in a sealed plexiglass chamber with controlled input of oxygen-nitrogen gas to establish an oxygen level of 5.705% oxygen. One to 3 days later, the mice are euthanized or placed in room air (normoxia). The brains are harvested, fixed in formalin, or frozen for histology/immunohistochemistry examination. Staining for GFAP (astrocytes), TAU, endothelin receptor A or B (phosphorylation) was carried out.
Mice were placed in a hypoxia chamber for 1-3 days are taken out and divided into 2 groups: (1) treated with PD145065 (dual endothelin receptor inhibitor), or (2) saline. Treatments are by daily i.p. injections. The brains of control and treated mice are harvested 2-5 days later and processed for histological examination Immunohistochemistry for GFAP, TAU, ETAR, and ETBR (phosphorylation) was carried out.
as §5, with “The following methods were used for the chronic hypoxia (hypoxia chamber) experiments. Mice” for “Mice”, “were” for “are”, “phosphorylation” for “(phosphorylation)”, “out. […]” for “out.”

TAU production/expression in brain caused by the chemotherapeutic [2] | TAU production/expression in brain caused by the chemotherapeutic ([2]; listed as Taxol) | TAU production/expression in brain caused by the chemotherapeutic ([2]; listed as TMZ) | phosphorylation of ETA and ETB receptors [3] | SMILES | body weight of paclitaxel-treated mice ([1]; paclitaxel alone, FIG. 22) | GFAP in wounded brain [4] | weight loss associated with paclitaxel, prevention (co-administration) ([1]; PD 10 mg/kg i.p. daily plus taxol 8 mg/kg i.p. twice per week, FIG. 23) | weight loss associated with paclitaxel, treatment group ([1]; PD145065 given to mice receiving paclitaxel beginning on day 49, FIG. 22) | TAU expression / TAU positive cells in brain after wound [5] | TAU expression in brain of mice treated with paclitaxel or TMZ ([2]; PD145065 10 mg/kg i.p. daily, 6 weeks, TMZ 7.5 mg/kg p.o. daily or paclitaxel 8 mg/kg i.p. twice per week) | phosphorylation of endothelin receptors A and B (ETAR, ETBR) in wounded brain [6] | blocking the ability of astrocytes protection of tumor cells from chemotherapy [7] | APOE/TAU mRNA expression [8] | TAU expression in brain resulting from hypoxia [9]
result in the production of TAU | high expression of TAU | – | – | CC(=O)O[C@H]1C(=O)[C@@]2(C)[C@H]([C@H](OC(=O)c3ccccc3)[C@]3(O)C[C@H](OC(=O)[C@H](O)[C@@H](NC(=O)c4ccccc4)c4ccccc4)C(C)=C1C3(C)C)[C@]1(OC(C)=O)CO[C@@H]1C[C@@H]2O [paclitaxel] | loss of weight | – | – | – | – | – | – | – | – | –
result in the production of TAU | – | high expression of TAU | – | Cn1nnc2c(C(N)=O)ncn2c1=O [temozolomide] | – | – | – | – | – | – | – | – | – | –
– | – | – | can prevent phosphorylation | CC[C@H](C)[C@H](NC(=O)[C@H](CC(=O)O)NC(=O)[C@H](CC(C)C)NC(=O)[C@H](NC(C)=O)C1c2ccccc2CCc2ccccc21)C(=O)N[C@H](C(=O)N[C@@H](Cc1c[nH]c2ccccc12)C(=O)O)[C@@H](C)CC [PD145065, N-Acetyl-α-[10,11-Dihydro-5H-dibenzo[a,d]cycloheptadien-5-yl]-D-Gly-Leu-Asp-Ile-Ile-Trp] (Ac-[dGly(5-dibenzosuberyl)]LDIIW-OH) | – | unchanged; also recorded: contain activated (GFAP-positive) astrocytes | completely inhibit the weight loss | reversal of the weight loss | not in brains of mice pretreated; also recorded: significantly diminished or eliminated; also recorded: negative; also recorded: reduced tau expression | significantly reduced TAU expression | inhibited phosphorylation; also recorded: reduced phosphorylation or be not phosphorylated | as effective as the combination of BQ123 and BQ788 | observed to have an effect | inhibited TAU expression; also recorded: significantly lower than in the brains of control mice; also recorded: reduced tau expression; also recorded: significant decrease in TAU expression
